The test system of one data set is trypsin. The experiment in a line: Enzymatic degradation by trypsin. Type of data set: in vitro ADME. The following applies: compared to native peptide GLP-1 (seq. 1). As for the experimental part: Enzymatic Degradation—Chymotrypsin and Trypsin. Stock solutions of the compounds were prepared at a concentration of 400 μM in a solution of 50 mM HEPES buffer, 50 mM NaCl, 0.05% Tween-80, pH 8.0. […] Stability of compounds to chymotrypsin was assessed by conducting a protease reaction in a 96-well plates at room temperature. […] Each compound was also incubated in the absence of the enzyme (12 μL of HEPES buffer and 38 μL of the compound).
(§1) At the indicated time (5, 10, 15, 30 and 60 minute(s)) a 10 μL aliquot was removed from each experimental reaction and pipet into 100 μL of 1% TFA solution to quench the reaction (t=0 minutes was determined using the reaction without enzyme). A portion of the quenched reaction solution was analyzed by HPLC. The time course of peptide degradation was determined by integrating the area of each peak in a series of HPLC traces. Another portion of the quenched reaction was analyzed by LC-MS for identification of each peptide fragment.

A further data set has as its target T1, MDM2 (Homo sapiens, UniProt Q00987).
T1 construct: GST-Flag-Mdm2 (AA1-188; GI:4505136)
The experiment in a line: MDM2/p53 interaction HTRF assay. Type of data set: biochemical. As for the experimental part:
(§2) Functional Assay to Examine Bioactivity of MDM2 and MDMX Antagonists. The compounds were received dissolved in 100% DMSO at a final concentration of 10 mM and frozen. After complete defrosting and sonication, all compounds were diluted in 100% DMSO at both 0.4 mM, 0.04 and 0.004 mM, and distributed into two 96-well compounds daughter plates (Table 2).
(§3) Each compound was evaluated in duplicate on both (MDM2 or MDMX)/p53 interaction and on a positive TR-FRET control protein in a 384-well reaction plate. […] The reference compound Nutlin-3 is integrated in the compound daughter plate and was used under the same conditions.
(§4) HTRF (Homogeneous Time-Resolved Fluorescence) principle. The HTRF technology is based on time resolved fluorescence energy transfer (TR-FRET), which occurs between long-lived fluorophore Europium or Terbium Cryptates, and EuK or Tb respectively, as a donor and the allophycocyanin XL665, d2 or Red as acceptor. Many compounds and proteins present in biological fluids or serum are naturally fluorescent, and the use of conventional, prompt fluorescence leads to serious limitations in assay sensitivity. The use of long-lived fluorophore combined with time-resolved detection (a delay between excitation and emission detection) minimizes prompt fluorescence interference. […]

The target in a further data set is T2, MDMX (Homo sapiens, UniProt O15151).
T2 construct: GI:88702790)
T2 sequence (O15151 1-174): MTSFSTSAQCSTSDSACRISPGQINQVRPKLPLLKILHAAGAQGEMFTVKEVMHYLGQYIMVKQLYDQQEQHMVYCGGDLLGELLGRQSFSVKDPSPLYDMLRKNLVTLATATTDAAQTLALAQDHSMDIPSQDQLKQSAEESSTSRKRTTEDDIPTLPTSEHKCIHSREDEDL
The experiment in a line: MDMX/p53 interaction HTRF assay. Type of data set: biochemical. As for the experimental part: as §2, §3, §4

For data set [1] the following is noted: in vivo; cited from earlier work.
Another data set deals with chymotrypsin. The experiment in a line: Enzymatic degradation by chymotrypsin. Type of data set: in vitro ADME. The note with it: compared to native peptide GLP-1 (SEQ ID NO: 1). As for the experimental part:
Enzymatic Degradation—Chymotrypsin and Trypsin. Stock solutions of the compounds were prepared at a concentration of 400 μM in a solution of 50 mM HEPES buffer, 50 mM NaCl, 0.05% Tween-80, pH 8.0. Stock solution of the chymotrypsin or trypsin was prepared at a concentration of 250 μg/mL in water. Stability of compounds to chymotrypsin was assessed by conducting a protease reaction in a 96-well plates at room temperature. Each well received 10 μL of HEPES buffer, 38 μL of the solution of compound to be assayed (final concentration 304 μmol/L), and 2 μL of the enzyme solution (final concentration 10 μg/mL) for a total volume of 50 μL. Each compound was also incubated in the absence of the enzyme (12 μL of HEPES buffer and 38 μL of the compound).
as §1

The next data set addresses T3, mouse GLP-1 receptor (Mus musculus, UniProt O35659).
T3 construct: mouse GLP-1 receptor endogenously expressed in βTC6 cells; endogenous in cells; host or cells: βTC6 cells
T3 sequence (O35659 22-463): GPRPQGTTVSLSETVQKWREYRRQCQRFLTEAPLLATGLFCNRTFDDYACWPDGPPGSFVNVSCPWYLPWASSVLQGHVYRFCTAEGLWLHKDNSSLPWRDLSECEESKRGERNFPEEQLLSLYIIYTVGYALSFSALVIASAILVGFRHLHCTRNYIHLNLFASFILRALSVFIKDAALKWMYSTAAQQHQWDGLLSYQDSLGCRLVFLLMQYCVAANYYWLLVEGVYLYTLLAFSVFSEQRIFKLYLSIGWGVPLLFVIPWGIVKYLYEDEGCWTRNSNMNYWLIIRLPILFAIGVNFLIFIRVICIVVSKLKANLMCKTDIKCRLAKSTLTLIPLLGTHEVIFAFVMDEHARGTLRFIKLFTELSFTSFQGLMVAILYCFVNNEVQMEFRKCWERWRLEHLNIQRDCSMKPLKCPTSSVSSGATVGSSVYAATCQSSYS
The experiment in a line: GLP-1 functional assay: agonist activity by cAMP production (HTRF) in βTC6 cells. Type of data set: cell-based. As for the experimental part:
For stimulated control measurement, separate assay wells contain 10 nM GLP-1(7-37) were utilized.
Following incubation, the cells were lysed and the fluorescence acceptor (D2-labeled cAMP) and fluorescence donor (anti-cAMP antibody labeled with europium cryptate) were added. […] The results are expressed as a percent of the control response to 10 nM GLP-1(7-37). The standard reference agonist is GLP-1(7-37), which was tested in each experiment at several concentrations to generate a concentration-response curve from which its EC50 value was calculated.
HTRF (Homogeneous Time-Resolved Fluorescence) principle. The HTRF technology is based on time resolved fluorescence energy transfer (TR-FRET), which occurs between long-lived fluorophore Europium or Terbium Cryptates, and EuK or Tb respectively, as a donor and the allophycocyanin XL665, d2 or Red as acceptor. Many compounds and proteins present in biological fluids or serum are naturally fluorescent, and the use of conventional, prompt fluorescence leads to serious limitations in assay sensitivity. The use of long-lived fluorophore combined with time-resolved detection (a delay between excitation and emission detection) minimizes prompt fluorescence interference.

Data set [2] has as its target T4, Carboxypeptidase A (EC 3.4.17.1) (Bos taurus, UniProt P00730).
T4 construct: from bovine pancreas (Fluka), milky suspension; purchased Fluka; host or cells: bovine pancreas
T4 sequence (P00730 111-419): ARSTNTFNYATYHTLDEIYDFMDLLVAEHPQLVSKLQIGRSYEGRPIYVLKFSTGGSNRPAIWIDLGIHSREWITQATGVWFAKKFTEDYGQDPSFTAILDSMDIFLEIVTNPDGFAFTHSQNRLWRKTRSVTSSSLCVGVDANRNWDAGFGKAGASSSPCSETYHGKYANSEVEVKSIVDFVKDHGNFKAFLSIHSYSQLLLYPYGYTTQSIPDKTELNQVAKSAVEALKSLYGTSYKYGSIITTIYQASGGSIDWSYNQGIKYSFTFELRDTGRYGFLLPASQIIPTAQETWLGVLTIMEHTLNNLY
The experiment in a line: Enzymatic degradation by carboxypeptidase A. Type of data set: in vitro ADME, bovine. The note with it: same results = more stable than the native peptides. As for the experimental part:
Enzymatic Degradation—Carboxypeptidase A. Carboxypeptidase A (EC 3.4.17.1) from bovine pancreas (Fluka), milky suspension, stock solution in PBS buffer (pH 7.5, 0.01 M). For each degradation experiment, stock solutions of the peptidic substrate and the enzyme were made using phosphate-buffered saline (PBS) buffer solution. The enzyme concentrations of the stock solutions were selected such that the standard substrates were totally degraded after a maximum of 15 min (ratio 2[enzyme]:100[substrate]). PBS buffer solution (10 mM sodium phosphate, 0.14 M NaCl) was prepared as follows: Solution A (4.75 mL of 0.2 M NaH2PO4.H2O), solution B (20.25 mL of 0.2 M Na2HPO4.H2O), NaCl (4.5 g) and H2O (25 mL) were stirred for 15 min at room temperature and diluted tenfold with H2O. The pH was adjusted either with NaOH (1 M) or with HCl (1 M) prior to use. A solution of the substrate in PBS buffer (pH 7.5, 0.01 M) and a solution of the required amount of enzyme, were mixed and incubated at 25° C. for 4 hours. Degradation was stopped with concentrated AcOH, and buffer solution was added so that the total volume reached 150 μL.
The resulting mixture was analyzed by reversed-phase HPLC. A mixture of CH3CN/H2O (0.1% TFA) was used as eluent. Gradients were 10% CH3CN to 100% CH3CN in 10 minutes. The flow rate, for all separations, was 1 mL·min^−1.

Numbered stars: 1 amine (or outer) side, 2 acyl side, 3 side chain; on linkers, the order of the positions; unused ones are H or OH. Peptide text beside a SMILES is read from it. * marks the point of attachment. X3 = O=C(O)[C@@H]1CCCN1C(=O)NC[C@H](CO)N*; X5 = C[C@@H](O)[C@H](N)CN*; CO = O=C([*:1])[*:2]

T1 sequence (Q00987 1-188): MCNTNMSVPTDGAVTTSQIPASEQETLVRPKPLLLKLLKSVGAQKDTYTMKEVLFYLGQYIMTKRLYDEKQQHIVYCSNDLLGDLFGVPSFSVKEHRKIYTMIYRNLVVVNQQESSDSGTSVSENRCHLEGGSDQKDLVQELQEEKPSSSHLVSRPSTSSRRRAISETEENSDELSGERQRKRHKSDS

On to `CC[C@H](C)[C@H](NC(=O)[C@H](Cc1ccccc1)NC(=O)NC[C@H](CCC(=O)O)NC(=O)[C@H](CCCCN)NC(=O)[C@H](C)NC(=O)[C@H](C)NC(=O)[C@H](CCC(N)=O)NC(=O)CNC(=O)[C@H](CCC(=O)O)NC(=O)[C@H](CC(C)C)NC(=O)[C@H](Cc1ccc(O)cc1)NC(=O)[C@H](CO)NC(=O)[C@H](CO)NC(=O)[C@@H](NC(=O)[C@H](CC(=O)O)NC(=O)[C@H](CO)NC(=O)[C@@H](NC(=O)[C@H](Cc1ccccc1)NC(=O)[C@@H](NC(=O)CNC(=O)[C@H](CCC(=O)O)NC(=O)[C@H](C)NC(=O)[C@@H](N)Cc1c[nH]cn1)[C@@H](C)O)[C@@H](C)O)C(C)C)C(=O)N[C@@H](C)C(=O)N[C@@H](Cc1c[nH]c2ccccc12)C(=O)N[C@@H](CC(C)C)C(=O)N[C@H](C(=O)N[C@@H](CCCCN)CNC(=O)NCC(=O)N[C@@H](CCCNC(=N)N)CNC(=O)NCC(=O)O)C(C)C` [Compound 11], for which the “half-life in the trypsin degradation test compared to native peptide” value in the data set on trypsin was “longer half-life”.
For the molecule `CC(C)C[C@H](NC(=O)[C@H](C)NC(=O)[C@H](Cc1c[nH]c2ccccc12)NC(=O)[C@H](Cc1ccc(O)cc1)NC(=O)[C@H](CCC(=O)O)NC(=O)[C@H](C)NC(=O)[C@H](Cc1ccccc1)NC(=O)[C@H](CO)NC(=O)NC[C@@H](N)[C@@H](C)O)C(=O)N[C@@H](CC(C)C)C(=O)N[C@@H](CO)CNC(=O)N1CCC[C@H]1C(=O)O` [Compound 23] ({X5-CO}-SFAEYWALL-X3; N-terminus and C-terminus assumed), the values for the EC50 on MDM2 and at MDMX were 0.75 nM and 6.3 nM, respectively.
Albiglutide: in data set [1], the half-life result is given as “four to seven”.
Turning to `CC[C@H](C)[C@H](NC(=O)[C@H](Cc1ccccc1)NC(=O)[C@H](CCC(=O)O)NC(=O)[C@H](CCCCN)NC(=O)[C@H](C)NC(=O)[C@H](C)NC(=O)[C@H](CCC(N)=O)NC(=O)CNC(=O)[C@H](CCC(=O)O)NC(=O)[C@H](CC(C)C)NC(=O)[C@H](Cc1ccc(O)cc1)NC(=O)[C@H](CO)NC(=O)[C@H](CO)NC(=O)[C@@H](NC(=O)[C@H](CC(=O)O)NC(=O)[C@H](CO)NC(=O)[C@@H](NC(=O)[C@H](Cc1ccccc1)NC(=O)[C@@H](NC(=O)CNC(=O)[C@H](CCC(=O)O)NC(=O)[C@H](C)NC(=O)[C@@H](N)Cc1c[nH]cn1)[C@@H](C)O)[C@@H](C)O)C(C)C)C(=O)N[C@@H](C)C(=O)N[C@H](CNC(=O)N[C@@H](CC(C)C)C(=O)N[C@H](C(=O)N[C@@H](CCCCN)C(=O)NCC(=O)N[C@@H](CCCNC(=N)N)C(=O)NCC(=O)O)C(C)C)Cc1c[nH]c2ccccc12` [Compound 4], the “half-life in the chymotrypsin degradation test compared to native peptide” value with chymotrypsin was “longer half-life”. Moreover, the midpoint of the response at mouse GLP-1 receptor, the EC50, lay at 0.26 nM. Besides, the “stability with carboxipeptidase A compared to native peptides” value in data set [2] is “same results”.
